Results: patent US5340829A, “Immunoregulatory agents” (priority 1992, dated 1994)
Entries after “also recorded” stand apart in the source; their conditions may differ.

How the values were obtained:
[1] = system: Human polymorphonuclear leukocytes (PMNs); conditions: known from the art; cited from earlier work
[2] = system: Human polymorphonuclear leukocytes (PMNs); assay: LTB4 release by polymorphonuclear leukocytes (Experiment 10); type: cell-based; conditions: normal human PMNs
Excerpt: Human polymorphonuclear leukocytes (PMNs) were used to study LTB4 release, which is known to be involved in inflammation.

[3] = system: delayed-type hypersensitivity (DTH); assay: DTH ear swelling, comparison of sorbinil, tolrestat, WF-3681 and NSAIDs (Experiment 23, TABLE 5); type: in vivo, mice; conditions: for Effect on DTH as measured by ear swelling (in words): mouse, in vivo
Method: Delayed type hypersensitivity, which involves the participation of T lymphocytes and macrophages, can be studied in vivo by exposing (or priming) a mammal to a novel antigen and then reexposing (or challenging) the primed animal to the same antigen four to seven days later. The classic DTH response includes symptoms of inflammatory response, induration and erythema, which peak at 24 to 48 hours after challenging and then decline slowly.
Eight-week old female C57BL/6J mice (Jackson Labs) were divided into primed and unprimed groups. The five mice in the primed group were primed to 2,4-dinitrofluorobenzene (DNFB; Sigma Chemical Co., Grade 1, approx. 98%, Lot 129C-0065, No. d-6879) by painting their shaved ventral skins with 0.1 ml of 0.5% DNFB in ethanol:acetone (3:1). The five mice in the unprimed group were shaved and topically painted on their ventral skins with the ethanol:acetone (3:1) vehicle alone. The mice in both groups were challenged with DNFB four days later. A suitable patch of skin, the ear, was chosen for challenging. One ear was designated for challenging and the other to serve as a control. The thickness of each ear across the pinna was measured using micrometer calipers. The first measurements were taken four days after priming and are plotted as day 0 in FIG. 13. Next, each mouse was subjected to the following challenge regimen: one ear was challenged with one drop of 0.35% DNFB in olive oil, and the other (unchallenged control) ear was exposed to olive oil alone. The ear thicknesses (ET) of the challenged ear and the unchallenged ear were measured daily, and the swelling responses are plotted in FIG. 13 as: [formula]
Three groups of eight-week old female C57BL/6J mice were primed to DNFB as previously described. […] Six hours later the first sets of ear measurements were taken, and one ear of each mouse was challenged.
The Table has 4 columns, listing (left to right) each drug tested in column 1, drug concentrations in column 2, relative swelling in column 3, and effectiveness in column 4.

[4] = system: ear swelling produced by topical application of arachidonic acid; assay: Ear swelling produced by topical arachidonic acid (Experiment 22); type: in vivo, mice; conditions: topical administration
aldose reductase = conditions: approximate molar concentration necessary for 50% inhibition of aldose reductase; cited from earlier work
[5] = system: ear swelling in response to PMA; conditions: general statement on NSAIDs; cited from earlier work
[6] = concentration 8.5 μM, 0 = no effect

## CC1=C(/C=C/C(C)=C/C=C/C(C)=C/C(=O)O)C(C)(C)CCC1 [retinoic acid]
[1]
  LTB4 production (known): inhibit LTB4 production

## O=C(O)CCC1OC(=O)C(O)=C1c1ccccc1 (centres unmarked) [WF-3681, 3-(2,5-dihydro-4-hydroxy-5-oxo-3-phenyl-2-furyl)propionic acid]
[2]
  Production of LTB4: no effect
[3]; concentration 2.125 μM
  effectiveness (1 - R) (100%): 4%
  relative swelling (R): 0.96
[3]; concentration 4.25 μM
  effectiveness (1 - R) (100%): 39%
  relative swelling (R): 0.62
[3]; concentration 6 μM
  relative swelling (R): 0.68
[3]
  Effect on DTH as measured by ear swelling (in words): strong and substantially identical inhibitory effect

## CC(C)Cc1ccc(C(C)C(=O)O)cc1 (centres unmarked) [Ibuprofen, ibuprofen]
[3]; concentration 8.5 μM
  relative swelling (R): 1.0
[3]; [6]
  effectiveness (1 - R) (100%): 0%
[3]
  Effect on DTH as measured by ear swelling (in words): not effective in preventing DTH

## CC(=O)Nc1ccc(O)cc1 [Acetaminophen, acetaminophen]
[3]; concentration 8.5 μM
  relative swelling (R): 1.0
[3]; [6]
  effectiveness (1 - R) (100%): 0%
[3]
  Effect on DTH as measured by ear swelling (in words): not effective in preventing DTH

## COc1ccc2c(c1)c(CC(=O)O)c(C)n2C(=O)c1ccc(Cl)cc1 [indomethacin]
[4]
  Ear swelling produced by topical arachidonic acid: completely inhibited

## C[C@@H]1O[C@@H](Oc2c(-c3ccc(O)c(O)c3)oc3cc(O)cc(O)c3c2=O)[C@H](O)[C@H](O)[C@H]1O [Quercitrin, quercitrin]
[3]; concentration 3 μM
  effectiveness (1 - R) (100%): 2%
  relative swelling (R): 0.98
[3]
  Effect on DTH as measured by ear swelling (in words): not effective in preventing DTH

## O=c1c(O)c(-c2ccccc2)oc2ccccc12 [Hydroxyflavone, 3-hydroxyflavone]
Aldose reductase
  IC50: ~1 µM

## CC(=O)Oc1ccccc1C(=O)O [Aspirin, acetylsalicylic acid]
[3]; concentration 8.5 μM
  relative swelling (R): 1.0
[3]; [6]
  effectiveness (1 - R) (100%): 0%
[3]
  Effect on DTH as measured by ear swelling (in words): not effective in preventing DTH; also recorded: failed to inhibit DTH
Aldose reductase
  IC50: ~100 µM
[1]
  LTB4 production (known): inhibit LTB4 production
[5]
  Swelling of mouse ears in response to PMA (NSAIDs, stated in contrast): inhibit this response

## CCC1(c2ccccc2)C(=O)NC(=O)NC1=O [Phenobarbital, phenobarbital]
Aldose reductase
  IC50: ~1000 µM
